The subject of one data set is HEK293-hL1wt cells. The data set can be described thus: Haptotactic cell migration on fibronectin, HEK293-hL1wt. As to conditions: MEK inhibitor at 20 μM. Format: cell-based, human. The procedure:
(A) L1 processing and cleavage in transfected HEK293 cells. The cell lysates were analyzed by Western blot with pcyt-L1 recognizing the cytoplasmic portion of L1. The nomenclature of L1-cleavage fragments is according to a previous publication (Mechtersheimer et al, 2001). (B) ELISA analysis. Soluble L1 levels in the medium of HEK293-hL1wt or HEK293-hL1mutTS cells treated with or without PMA stimulation for 1 h at 37° C. was analyzed. Lysates from both cell lines were used as positive controls. (C) Stimulation of cell migration on fibronectin by recombinant L1-Fc. The fusion protein was added at the final concentration of 0.6 μg/ml. […] (E) Phosphorylation of ERK1/2, FAK, PAK 1 and Src was analyzed in HEK293, HEK293-hL1wt and HEK293-hL1mutTS cells grown in serum. […] Labelled proteins were detected by autoradiography.
(A) HEK293 cells or HEK293-hL1wt cells were transfected transiently with plasmids (10 μg DNA) encoding hL1mut, dominant-negative ADAM10 (ADAM10-DN) or empty pcDNA3 vector. […] 48 h after transfection, cells were analyzed for haptotactic cell migration on fibronectin. […] 48 h after transduction with hL1wt or hL1mutTS adenovirus or YFP-TM adenovirus for control, KS cells or the L1 positive ovarian carcinoma cells OVMz, SKOV3ip and MO68 were analyzed for haptotactic cell migration on fibronectin as described in the legend to FIG. 1. […]

Another data set deals with L1. The data set can be described thus: siRNA-mediated knockdown of L1 in OVMz cells (FACS, Western blot). In kind it is cell-based, human. To be noted: 48 hours after transfection. The procedure:
(A) OVMz cells were transfected with L1-specific siRNA or control siRNA. After 48 hrs, cells were stained with mAb L1-11A to L1 followed by PE-conjugated anti-mouse IgG antibody and subjected to FACS analysis. (B) Cell lysates were analyzed by Western blot analysis using antibodies to the L1 ectodomain (mAb L1-11A) or the cytoplasmic portion (pcytL1). The L1-32 fragment is the ADAM10-mediated ectodomain cleavage fragment.
(§1) For quantification of DNA fragmentation, supernatants were centrifuged at 200×g. The cell pellet was washed once in PBS (pH 7.4) and lysed in a hypotonic lysis buffer (0.1% sodium citrate, 0.1% Triton X-100, 50 μg/ml propidiumiodite) at 4° C. overnight. The nuclei were then analyzed for DNA content by flow cytometry. The staining of cells for flow cytometry with mAbs and PE-conjugated secondary antibodies has been described. Cells were analysed with a FACScan using Cellquest or FlowJo software from Becton Dickinson (Heidelberg, Germany).
(§2) SDS-PAGE under reducing conditions and transfer of separated proteins to Immobilon membranes using semi-dry blotting was described before. […] Eluted fractions were neutralized and an aliquot of the samples was analyzed by SDS-PAGE. […]
Transfection of siRNAs was described before. […] Cells were transfected with annealed siRNAs using Oligofectamine (Life Technologies) and analyzed after the indicated time points.

Data set [1] has as its system ERK and FAK phosphorylation. Briefly: Phosphorylation of ERK and FAK in L1-depleted OVMz cells. Format: cell-based. Here is the method: (C) Phosphorylation of ERK1/2, FAK, and PAK 1 was analyzed in L1-siRNA depleted cell. (D and E) analysis of apoptosis by Nicoletti staining.
(§3) SDS-PAGE under reducing conditions and transfer of separated proteins to Immobilon membranes using semi-dry blotting was described before. After blocking with 5% skim milk in TBS, the blots were developed with the respective primary antibody followed by peroxidase conjugated secondary antibody and ECL detection. The isolation and characterization of soluble L1 from ascites fluid was described before. Briefly, the vesicle cleared ascites fluid from ovarian carcinoma patients was adsorbed to Sepharoselinked mAb L1-11A and bound L1 was eluted with 0.1 M Glycin/HCl buffer pH 2.8. Eluted fractions were neutralized and an aliquot of the samples was analyzed by SDS-PAGE. Cell pellets were lysed in lysis buffer (20 mM Tris/HCl pH 8.0 containing 1% Triton X-100, 150 mM NaCl, 1 mM PMSF), cleared by centrifugation and mixed with two fold-concentrated reducing SDS-sample buffer.
(§4) Transfection of siRNAs was described before. L1 (5′-AGGGAUGG-UGUCCACCUUCAAAUU-3′) siRNA (SEQ ID NO: 1) was synthesized by MWG-Biotech (Ebersberg, Germany). Cells were transfected with annealed siRNAs using Oligofectamine (Life Technologies) and analyzed after the indicated time points.

The subject of the next data set is OVMz cells. The data set can be described thus: Apoptosis by Nicoletti staining in siRNA transfected OVMz cells. In kind it is cell-based. To be noted: compared to control siRNA treated cells. The procedure: (§5) Cells (1×10^5 cells per well) were cultured in duplicate in 6 well culture plates and, after washing once with PBS, incubated for the indicated timepoints with or without apoptotic stimuli in serum-free medium. Staurosporine (2 μM), C2-ceramide (40 μM) or cisplatin (17 μM) were used as apoptotic reagents. For hypoxia studies, cells were incubated for different time points under hypoxic conditions (1% O2) using a Reming Bioinstruments chamber and oxygen regulator (Reming Bioinstruments, Redfield, N.Y.).
as §1, §4

Data set [2] deals with HEK293-hL1 cells. Briefly: Induction of apoptosis, Nicoletti staining, in HEK293-hL1 cells. Format: cell-based, human. To be noted: L1 positive cells; cisplatin 17 μM. Here is the method: as §5, §1
In data set [3] the test system is HEK293 cells. Briefly: Induction of apoptosis, Nicoletti staining, in HEK293 cells. In kind it is cell-based, human. As to conditions: L1-negative cells; cisplatin 17 μM. Here is the method:
as §5, §1

The test system of a further data set is m130 cells. The data set can be described thus: Long-term cisplatin treatment of m130 cells. Format: cell-based. Here is the method: (A) Light microscopy of cisplatin treated and no-treated m130 cells. Note the more elongated morphology after treatment for 3 weeks. The bar represents 10 μm. (B) FACS analysis of cisplatin treated m130 cells with mAb L1-11A against human L1-CAM. The analysis was carried out as described in FIG. 1. (C) Western blot analysis of cell lysate from cisplatin treated on non-treated m130 cells. (D) FACS analysis of cisplatin treated SW707 colon carcinoma cells with mAb L1-11A against human L1-CAM.
We studied whether long-term cisplatin treatment of L1-negative m130 cells would augment L1 expression. M130 cells were treated cells with increasing amounts of cisplatin over a time period of 3 weeks (10 μM first week, 15 μM second week, 20 μM third week).

Another data set concerns OVMz. To be noted: L1 high expressing cell line OVMz; previous work [29]; read-out: IC50 for cisplatin; cited from earlier work.
The subject of a further data set is m130. As to conditions: L1 negative cell line m130; previous work [29]; read-out: IC50 for cisplatin; cited from earlier work.
For data set [4], the system named is HEK293 cells. Briefly: Soluble L1 rescue from staurosporine induced apoptosis, HEK293. Format: cell-based, human. To be noted: staurosporine 12 hours, purified soluble L1 10 μg/ml. The procedure: (§6) (A) HEK293 and HEK293-hL1 cells were treated with staurosporine for the indicated length of time in the presence or absence of purified soluble L1 (10 μg/ml). Cell survival was determined by Nicoletti staining. (B) Analysis of FAK phosphorylation in HEK293 cells after the addition of soluble L1.
as §5
(§7) For quantification of DNA fragmentation, supernatants were centrifuged at 200×g. […] The nuclei were then analyzed for DNA content by flow cytometry. […] Cells were analysed with a FACScan using Cellquest or FlowJo software from Becton Dickinson (Heidelberg, Germany).
as §2

Data set [5] deals with HEK293-hL1 cells. Briefly: Soluble L1 rescue from staurosporine induced apoptosis, HEK293-hL1. Format: cell-based, human. As to conditions: staurosporine 12 hours, purified soluble L1 10 μg/ml. The procedure:
as §6, §5, §7, §2

A further data set concerns FAK phosphorylation. The data set can be described thus: FAK phosphorylation in HEK293 cells after addition of soluble L1. In kind it is cell-based, human. To be noted: addition of soluble L1 to HEK293 cells. The procedure:
as §6, §3

These results are taken from patent publication US20080299123A1, “TREATMENT OF CHEMOTHERAPY- OR RADIOTHERAPY-RESISTANT TUMORS” (Deutsches Krebsforschungszentrum Stiftung des offentlichen …, priority 2006, published 2008).

“Also recorded” adds a separate entry of the source. Some results are limits rather than exact numbers.

Consider `COc1cccc(-c2cc(=O)c3ccccc3o2)c1N` [PD59098], for which the cell migration entry in the data set on HEK293-hL1wt cells was “Inhibition of cell migration was also observed”.
As to “L1-specific siRNA: L1 siRNA 5′-AGGGAUGG-UGUCCACCUUCAAAUU-3′ (SEQ ID NO: 1), synthesized by MWG-Biotech”, the “L1 expression at the cell surface” value in the data set on L1 is reported as “downregulation of L1 expression at the cell surface”. Besides, in [1], the “phosphorylation of ERK and FAK” value is listed as “no significant reduction”. Besides, the “sensitivity to apoptosis induced by cisplatin or staurosporine” value in the data set on OVMz cells is “significantly enhanced”.
By IC50 is commonly meant the midpoint of a concentration-inhibition curve. On to `N.N.[Cl][Pt][Cl]` [cisplatin, cis-Diammineplatinum(II) dichloride], for which the “cells survived the treatment with cisplatin” value in the data set on HEK293-hL1 cells [2] was “Approximately 70%”; in the data set with HEK293 cells [3], 40%. The “expression of L1” value with m130 cells (cisplatin 3 weeks (10, 15, 20 μM), FACS and Western Blot) is on record as “strongly enhanced”. The cell proliferation entry in the data set with m130 cells (long-term cisplatin treatment, data not shown) is recorded as “clearly decreased cell proliferation”. The IC50 in the data set on OVMz was more than 14 µM; with m130, 7 µM.

B1: soluble L1: soluble L1 ectodomain isolated from ascites fluid of ovarian carcinoma patients (protein, UniProt P32004 20-1120, looked up)
extracellular domain: IQIPEEYEGHHVMEPPVITEQSPRRLVVFPTDDISLKCEASGKPEVQFRWTRDGVHFKPKEELGVTVYQSPHSGSFTITGNNSNFAQRFQGIYRCFASNKLGTAMSHEIRLMAEGAPKWPKETVKPVEVEEGESVVLPCNPPPSAEPLRIYWMNSKILHIKQDERVTMGQNGNLYFANVLTSDNHSDYICHAHFPGTRTIIQKEPIDLRVKATNSMIDRKPRLLFPTNSSSHLVALQGQPLVLECIAEGFPTPTIKWLRPSGPMPADRVTYQNHNKTLQLLKVGEEDDGEYRCLAENSLGSARHAYYVTVEAAPYWLHKPQSHLYGPGETARLDCQVQGRPQPEVTWRINGIPVEELAKDQKYRIQRGALILSNVQPSDTMVTQCEARNRHGLLLANAYIYVVQLPAKILTADNQTYMAVQGSTAYLLCKAFGAPVPSVQWLDEDGTTVLQDERFFPYANGTLGIRDLQANDTGRYFCLAANDQNNVTIMANLKVKDATQITQGPRSTIEKKGSRVTFTCQASFDPSLQPSITWRGDGRDLQELGDSDKYFIEDGRLVIHSLDYSDQGNYSCVASTELDVVESRAQLLVVGSPGPVPRLVLSDLHLLTQSQVRVSWSPAEDHNAPIEKYDIEFEDKEMAPEKWYSLGKVPGNQTSTTLKLSPYVHYTFRVTAINKYGPGEPSPVSETVVTPEAAPEKNPVDVKGEGNETTNMVITWKPLRWMDWNAPQVQYRVQWRPQGTRGPWQEQIVSDPFLVVSNTSTFVPYEIKVQAVNSQGKGPEPQVTIGYSGEDYPQAIPELEGIEILNSSAVLVKWRPVDLAQVKGHLRGYNVTYWREGSQRKHSKRHIHKDHVVVPANTTSVILSGLRPYSSYHLEVQAFNGRGSGPASEFTFSTPEGVPGHPEALHLECQSNTSLLLRWQPPLSHNGVLTGYVLSYHPLDEGGKGQLSFNLRDPELRTHNLTDLSPHLRYRFQLQATTKEGPGEAIVREGGTMALSGISDFGNISATAGENYSVVSWVPKEGQCNFRFHILFKALGEEKGGASLSPQYVSYNQSSYTQWDLQPDTDYEIHLFKERMFRHQMAVKTNGTGRVRLPPAGFATE
modifications: extracellular domain
notes: soluble L1 ectodomain isolated from ascites fluid of ovarian carcinoma patients
As to B1, the values for the cell survival result with HEK293 cells [4] and with HEK293-hL1 cells [5] were “enhanced survival of both cell lines to a similar degree; also recorded: only partially rescue HEK293 cells from apoptosis” and “enhanced survival of both cell lines to a similar degree”, respectively. Also, the FAK phosphorylation entry in the data set on FAK phosphorylation was “enhanced FAK phosphorylation”.
